The test system of assay [1] is differentiated L6-myotubes. The assay is described as follows: cAMP production relative to isoprenaline (Biological example 2 of WO 2019/053427). The format is cell-based. The note with it: 0.25 h, compound at 10 μM, activity relative to isoproterenol at 10 μM. An outline of the steps:
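Values are cAMP levels relative to isoprenaline at equal concentration (final 1×10^−5 M for both). Stimulation lasted 15 min in differentiated L6 myotubes, using HBSS buffer (pH 7.4) containing 1 mM IBMX, 5 mM HEPES and 1% BSA.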
(cAMP levels reflect the balance of adenylyl cyclase and phosphodiesterase activity.)

Assay [2] relates to differentiated L6-myotubes. The assay is described as follows: Glucose uptake screen (Biological example 1 of WO 2019/053427). Type of assay: cell-based. The note with it: compound at 10 μM, activity relative to isoproterenol at 10 μM, read-out: Biological example 1 of WO 2019/053427 (GU). An outline of the steps:
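Uptake was read out as ^3H-2-deoxyglucose (50 nM, 10 min) radioactivity in NaOH lysates. Beforehand, overnight-starved, differentiated L6 myotubes received compound at 1×10^−5 M with ICI-118551 present for 1 h 40 min, followed by fresh agonist for a further 20 min in glucose-free medium.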

Bounds are passed on as bounds.

On to `CC(C)(C[C@H]1CC[C@@H](O)CC1)NC[C@H](O)c1cncc(F)c1` [Compound 301, (R)-2-{1,1-dimethyl-2-[(1s,4S)-4-hydroxycyclohexyl]ethylamino}-1-(5-fluoro-3-pyridyl)-1-ethanol], for which the Emax at 10 µM was below 25% in assay [1] and above 75% in assay [2].

In the case of `CCC[C@H]1CCC[C@H]([C@H](O)c2cncc(F)c2)N1` [Compound 140, (R)-[(2R,6S)-6-propyl-2-piperidyl](5-fluoro-3-pyridyl)methanol], the Emax at 10 µM in assay [1] and in assay [2] was below 25% each time.

`O=C(N[C@H]1CC[C@H](CNC[C@H](O)c2cncc(F)c2)CC1)c1ccccc1` [Compound 317, N-[(1R,4r)-4-{[(R)-2-(5-fluoro-3-pyridyl)-2-hydroxyethylamino]methyl}cyclohexyl]benzamide]: the figures for the Emax at 10 µM in assay [1] and in assay [2] were below 25% and 50 to 75%, respectively.

Consider `CCC[C@H]1CCC[C@H]([C@@H](O)c2cncc(F)c2)N1` [Compound 139, (S)-[(2R,6S)-6-propyl-2-piperidyl](5-fluoro-3-pyridyl)methanol], for which the Emax at 10 µM in assay [1] and in assay [2] was below 25% each time.

`CC(C)(C[C@H]1CC[C@H](N)CC1)NC[C@H](O)c1cncc(F)c1` [Compound 359, (R)-2-{1,1-dimethyl-2-[(1r,4R)-4-aminocyclohexyl]ethylamino}-1-(5-fluoro-3-pyridyl)-1-ethanol]: the results for the Emax at 10 µM in assay [1] and in assay [2] were below 25% and above 75%, respectively.

Consider `CN([C@H]1CC[C@H](CC(C)(C)NC[C@H](O)c2cccc(F)c2)CC1)S(C)(=O)=O` [Compound 499, (R)-2-{1,1-dimethyl-2-[(1r,4R)-4-(N-mesyl-N-methylamino)cyclohexyl]ethylamino}-1-(m-fluorophenyl)-1-ethanol], for which the Emax at 10 µM in assay [1] is below 25%; in assay [2], 25 to 50%.

With `CC1(C)CCC[C@H]([C@H](O)c2cccc(O)c2)N1` [Compound 104, (R)-[(R)-6,6-dimethyl-2-piperidyl](m-hydroxyphenyl)methanol], the results for the Emax at 10 µM in assay [1] and in assay [2] were below 25% and 25 to 50%, respectively.

In the case of `CO[C@H]1CC[C@H](C[C@]2(C)CC[C@H]([C@@H](O)c3cccc(F)c3)N2)CC1` [Compound 363, (S)-[(2R,5S)-5-methyl-5-{[(1r,4S)-4-methoxycyclohexyl]methyl}-2-pyrrolidinyl](m-fluorophenyl)methanol], the results for the Emax at 10 µM in assay [1] and in assay [2] were below 25% and above 75%, respectively.

On to `COc1ccc(C[C@@H]2CC[C@H]([C@@H](O)c3cncc(F)c3)N2)cc1` [Compound 377, (S)-{(2R,5S)-5-[(p-methoxyphenyl)methyl]-2-pyrrolidinyl}(5-fluoro-3-pyridyl)methanol], for which the Emax at 10 µM in assay [1] is below 25%; in assay [2], above 75%.

For `CCCCNC[C@H](O)c1cccc(N)c1F` [Compound 90, (R)-1-(3-amino-2-fluorophenyl)-2-(butylamino)-1-ethanol], the figures for the Emax at 10 µM in assay [1] and in assay [2] were below 25% and 50 to 75%, respectively.

Take `CC(C)(CC[C@H]1CC[C@H](O)CC1)NC[C@H](O)c1ccccc1F` [Compound 319, (R)-2-{1,1-dimethyl-3-[(1r,4S)-4-hydroxycyclohexyl]propylamino}-1-(o-fluorophenyl)-1-ethanol]: the results for the Emax at 10 µM in assay [1] and in assay [2] were below 25% and above 75%, respectively.

Take `COCC12CCC([C@@H](O)c3cccc(F)c3)(CC1)N2` [Compound 329, (S)-(m-fluorophenyl){4-(methoxymethyl)-7-azabicyclo[2.2.1]hept-1-yl}methanol]: the Emax at 10 µM is below 25% in assay [1] and 25 to 50% in assay [2].

Consider `CCC[C@H]1CCC[C@H]([C@H](O)c2ccccc2F)N1` [Compound 93, (R)-[(2R,6S)-6-propyl-2-piperidyl](o-fluorophenyl)methanol], for which the Emax at 10 µM is below 25% in assay [1] and 25 to 50% in assay [2].

With `CC12CCC([C@H](O)c3cccc(Cl)c3)(CC1)N2` [Compound 197, (R)-(m-chlorophenyl)(4-methyl-7-azabicyclo[2.2.1]hept-1-yl)methanol], the Emax at 10 µM in assay [1] was below 25%; in assay [2], above 75%.

For `CCCC(C)NC(C)C(O)c1ccc(O)cc1` (stereo not drawn) [Compound 13, 1-(p-hydroxyphenyl)-2-(1-methylbutylamino)-1-propanol], the Emax at 10 µM in assay [1] was below 25%; in assay [2], 50 to 75%.

For the compound `CC(=O)N[C@H]1CC[C@H](CC(C)(C)NC[C@H](O)c2cccc(C(F)(F)F)n2)CC1` [Compound 460, N-[(1S,4r)-4-(2-{(S)-2-hydroxy-2-[6-(trifluoromethyl)-2-pyridyl]ethylamino}-2-methylpropyl)cyclohexyl]acetamide], the Emax at 10 µM is below 25% in assay [1] and 50 to 75% in assay [2].

As to `O[C@@H](c1cccc(F)c1)[C@H]1CC[C@@H](Cc2ccc(Cl)cc2)N1` [Compound 391, (S)-{(2R,5S)-5-[(p-chlorophenyl)methyl]-2-pyrrolidinyl}(m-fluorophenyl)methanol], the Emax at 10 µM in assay [1] was below 25%; in assay [2], 50 to 75%.

Consider `CN(C)S(=O)(=O)[C@H]1CC[C@@H](CC(C)(C)NC[C@H](O)c2cccc(F)c2)CC1` [Compound 470, (R)-2-{1,1-dimethyl-2-[(1s,4S)-4-(dimethylaminosulfonyl)cyclohexyl]ethylamino}-1-(m-fluorophenyl)-1-ethanol], for which the Emax at 10 µM was 25 to 50% in assay [1] and above 75% in assay [2].

For the compound `CC12CC(C1)[C@@H]([C@@H](O)c1cccc(Cl)c1)N2` [Compound 207, (S)-{(S)-1-methyl-2-azabicyclo[2.1.1]hex-3-yl}(m-chlorophenyl)methanol], the Emax at 10 µM is below 25% in assay [1] and 25 to 50% in assay [2].

Turning to `CCCC(C)NCC(O)c1cccc(O)c1` (stereo not drawn) [Compound 14, 1-(m-hydroxyphenyl)-2-(1-methylbutylamino)-1-ethanol], the Emax at 10 µM in assay [1] is below 25%; in assay [2], above 75%.

For the compound `CC12CCC([C@H](O)c3ccncc3F)(CC1)N2` [Compound 254, (R)-(3-fluoro-4-pyridyl)(4-methyl-7-azabicyclo[2.2.1]hept-1-yl)methanol], the Emax at 10 µM in assay [1] and in assay [2] was below 25% in each case.

In the case of `CCCCNC[C@H](O)c1cccc(F)c1` [Compound 47, (R)-2-(butylamino)-1-(m-fluorophenyl)-1-ethanol], the Emax at 10 µM in assay [1] is below 25%; in assay [2], 50 to 75%.

Regarding `CCCCNCC(O)c1ccc(O)c(Cl)c1` (stereo not drawn) [Compound 20, 2-(butylamino)-1-(3-chloro-4-hydroxyphenyl)-1-ethanol], the values for the Emax at 10 µM in assay [1] and in assay [2] were below 25% and 25 to 50%, respectively.

`CC(C)(NC[C@H](O)c1cccc(F)c1)[C@H]1CC[C@H](C(=O)O)CC1` [Compound 368, (1R,4r)-8-[(R)-2-(m-fluorophenyl)-2-hydroxyethylamino]-7-hydroxy-p-menthan-7-one]: the Emax at 10 µM in assay [1] is below 25%; in assay [2], 25 to 50%.

With `CCCCNC[C@H](O)c1ccc(O)cc1` [Compound 9, (R)-2-(butylamino)-1-(p-hydroxyphenyl)-1-ethanol], the Emax at 10 µM in assay [1] was below 25%; in assay [2], above 75%.

As to `CC(C)(C[C@H]1CC[C@@H](O)CC1)NC[C@H](O)c1cccc(F)c1` [Compound 302, (R)-2-{1,1-dimethyl-2-[(1s,4S)-4-hydroxycyclohexyl]ethylamino}-1-(m-fluorophenyl)-1-ethanol], the Emax at 10 µM is below 25% in assay [1] and 50 to 75% in assay [2].

Take `CC(C)(NC[C@H](O)c1cccc(F)c1)[C@H]1CC[C@H](N)CC1` [Compound 381, (R)-1-(m-fluorophenyl)-2-{1-methyl-1-[(1r,4R)-4-aminocyclohexyl]ethylamino}-1-ethanol]: the Emax at 10 µM was below 25% in assay [1] and 50 to 75% in assay [2].

In the case of `CNS(=O)(=O)[C@H]1CC[C@H](CC(C)(C)NC[C@H](O)c2cccc(F)c2)CC1` [Compound 476, (R)-2-{1,1-dimethyl-2-[(1r,4R)-4-(methylaminosulfonyl)cyclohexyl]ethylamino}-1-(m-fluorophenyl)-1-ethanol], the Emax at 10 µM in assay [1] is 25 to 50%; in assay [2], above 75%.

For `CC(C)(CC[C@H]1CC[C@@H](C(=O)O)CC1)NC[C@H](O)c1cccc(F)c1` [Compound 352, (1S,4s)-4-{3-[(R)-2-(m-fluorophenyl)-2-hydroxyethylamino]-3-methylbutyl}cyclohexanecarboxylc acid], the figures for the Emax at 10 µM in assay [1] and in assay [2] were below 25% and 25 to 50%, respectively.

With `COC(=O)[C@H]1CC[C@H](CCC(C)(C)NC[C@H](O)c2cncc(F)c2)CC1` [Compound 342, methyl (1R,4r)-4-{3-[(R)-2-(5-fluoro-3-pyridyl)-2-hydroxyethylamino]-3-methylbutyl}cyclohexanecarboxylate], the Emax at 10 µM is below 25% in assay [1] and above 75% in assay [2].

With `CN([C@H]1CC[C@H](CC(C)(C)NC[C@H](O)c2cncc(F)c2)CC1)S(C)(=O)=O` [Compound 521, (R)-2-{1,1-dimethyl-2-[(1r,4R)-4-(N-mesyl-N-methylamino)cyclohexyl]ethylamino}-1-(5-fluoro-3-pyridyl)-1-ethanol], the Emax at 10 µM is below 25% in assay [1] and 50 to 75% in assay [2].

`CC1(C)CCC[C@H]([C@@H](O)c2ccccc2Cl)N1` [Compound 163, (S)-[(R)-6,6-dimethyl-2-piperidyl](o-chlorophenyl)methanol]: the Emax at 10 µM in assay [1] was below 25%; in assay [2], above 75%.

`CCCCNCC(O)c1ccc(O)cc1` (stereo not drawn) [Compound 1, 2-(butylamino)-1-(p-hydroxyphenyl)-1-ethanol]: the Emax at 10 µM in assay [1] was below 25%; in assay [2] it was above 75%.

Values taken from patent publication US20260256751A1, “COMBINATION OF BETA-2-ADRENERGIC RECEPTOR AGONISTS AND GLP-1 RECEPTOR AGONISTS FOR USE IN TREATING HYPERGLYCAEMIA” (ATROGI AB, priority 2023, published 2026).
